{
  "source": "paper PMC6109769",
  "about": "“Calmodulin Enhances Cryptochrome Binding to INAD in Drosophila Photoreceptors” (Frontiers in Molecular Neuroscience, 2018)",
  "key": {"CaM [1]": {"target": "T1, CaM (Xenopus laevis, UniProt P0DP33)", "T1 construct": "(His)6 (N); made in house; host or cells: Escherichia coli BL21", "assay": "ITC titration of peptide into Ca2+-loaded CaM (5 mM CaCl2), single-curve fits", "assay_type": "binding", "conditions": "calculated, T = 298 K", "method": "(§1) Peptide titrations were performed at 25°C using a high-sensitivity VP-isothermal titration calorimetry (ITC) microcalorimeter (MicroCal LLC, Northampton, MA, USA). The reference cell was filled with deionized water. Protein and peptide solutions were prepared by diluting concentrated stock solutions in the reaction buffer (50 mM TrisHCl, pH 7.5, 150 mM NaCl, in the absence or in the presence of 5 mM CaCl2). Apo-protein and peptide solutions were devoid of Ca^2+ ions, as determined by inductively coupled plasma emission spectroscopy, as previously described (Merloni et al., [2014]). […]\n(§2) Integrated heat data obtained for each titration were fitted using a nonlinear least-squares minimization algorithm to a theoretical titration curve, using AFFINImeter^2, using both the independent sites and the stoichiometric equilibria approach. ΔH (reaction enthalpy change, cal mol^−1) and Ka (binding constant, M^−1) were the thermodynamic fitting parameters. […] The reaction entropy was calculated using the relationships ΔG = −RTlnKa (R = 1.9872 cal mol^−1 K^−1, T = 298 K) and ΔG = ΔH − TΔS. […] The reliability of the obtained fits was evaluated using the Goodness of Fit (GoF) parameter."}, "CaM [2]": {"target": "T1, CaM", "assay": "ITC global fit of single titrations and competition experiment (Scheme 5), 5 mM CaCl2", "assay_type": "binding", "conditions": "calculated from global fit Scheme 5", "method": "as §1, §2\nThe reaction was monitored using ITC. […]"}, "CaM-dCRY complex": {"test_system": "CaM-dCRY complex", "assay_type": "binding, Xenopus laevis", "conditions": "ITC, 5 mM CaCl2; INAD peptide 800 μM over CaM 40 μM + dCRY peptide 40 μM (1:1)", "method": "Peptide titrations were performed at 25°C using a high-sensitivity VP-isothermal titration calorimetry (ITC) microcalorimeter (MicroCal LLC, Northampton, MA, USA). The reference cell was filled with deionized water. Protein and peptide solutions were prepared by diluting concentrated stock solutions in the reaction buffer (50 mM TrisHCl, pH 7.5, 150 mM NaCl, in the absence or in the presence of 5 mM CaCl2). Apo-protein and peptide solutions were devoid of Ca^2+ ions, as determined by inductively coupled plasma emission spectroscopy, as previously described (Merloni et al., [2014]). Each experiment started with a small injection of 1–2 μL, which was discarded from the analysis of the integrated data, in order to avoid artifacts due to the diffusion through the injection port occurring during the long equilibration period, locally affecting the protein concentration near the syringe needle tip. Care was taken to start the first addition after baseline stability had been achieved. […] To allow the system to reach equilibrium, a spacing of 300 s was applied between each ligand injection.\nThe reaction was monitored using ITC. […] A fit of the integrated heat data, however, is quite complex, as the binding curve represents the sum of the contributions of the multiple binding isotherms deriving from the different equilibria involved. […]"}},
  "data": [
    {"smiles": "CC[C@H](C)[C@H](NC(=O)[C@H](CCCCN)NC(=O)[C@H](C)NC(=O)[C@H](CCSC)NC(=O)[C@@H](NC(=O)[C@H](Cc1ccc(O)cc1)NC(=O)CNC(=O)[C@H](Cc1ccccc1)NC(C)=O)[C@@H](C)O)C(=O)N[C@@H](CC(N)=O)C(=O)N[C@@H](CCCCN)C(=O)N[C@@H](CCCNC(=N)N)C(=O)N[C@@H](Cc1ccc(O)cc1)C(=O)N[C@@H](CC(N)=O)C(=O)N[C@@H](CCSC)C(N)=O", "note": "[INAD230–243]", "values": [
      {"measurement": "ΔS (INAD)", "setting": "CaM [1]", "result": "−11.3", "unit": "cal mol^−1 K^−1"},
      {"measurement": "ΔSINAD, global fit", "setting": "CaM [2]", "result": "+4.42 cal mol^−1 K^−1"},
      {"measurement": "heat of reaction on titration of INAD over CaM preincubated with dCRY", "setting": "CaM-dCRY complex", "result": "absence of significant heat of reaction"}
    ]}
  ]
}
